# Data as given in ChEMBL document CHEMBL2384918, “Identification of Selective Nanomolar Inhibitors of the Human Neuraminidase, NEU4” (ACS Med Chem Lett, 2013).
# Assays:
# Sialidase-3 = target: T1, Sialidase-3 (Homo sapiens, UniProt Q9UQ49); test: Inhibition of human NEU3 using 4-MU-NANA as substrate preincubated for 15 mins before substrate addition measured after 30 mins by fluorescence plate reader analysis
# T1 sequence (Q9UQ49 whole entry): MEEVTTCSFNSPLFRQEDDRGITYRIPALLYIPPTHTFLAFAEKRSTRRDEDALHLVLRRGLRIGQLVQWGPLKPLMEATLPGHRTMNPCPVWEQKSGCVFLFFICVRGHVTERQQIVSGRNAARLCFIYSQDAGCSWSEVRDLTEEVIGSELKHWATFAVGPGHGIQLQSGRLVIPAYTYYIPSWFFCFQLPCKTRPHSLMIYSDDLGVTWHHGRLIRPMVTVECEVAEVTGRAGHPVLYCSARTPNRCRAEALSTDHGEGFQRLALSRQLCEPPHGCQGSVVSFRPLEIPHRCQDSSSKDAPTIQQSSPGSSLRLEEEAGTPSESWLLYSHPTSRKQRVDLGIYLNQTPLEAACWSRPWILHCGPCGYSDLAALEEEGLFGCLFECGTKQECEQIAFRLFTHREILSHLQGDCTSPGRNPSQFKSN
# Sialidase-1 = Sialidase-1 (Homo sapiens, UniProt Q99519); test: Inhibition of human NEU1 using 4-MU-NANA as substrate preincubated for 15 mins before substrate addition measured after 30 mins by fluorescence plate reader analysis
# Sialidase-4 [1] = target: T2, Sialidase-4 (Homo sapiens, UniProt Q8WWR8); test: Inhibition of human NEU4 using 4-MU-NANA as substrate preincubated for 15 mins before substrate addition measured after 30 mins by fluorescence plate reader analysis
# T2 sequence (Q8WWR8 whole entry): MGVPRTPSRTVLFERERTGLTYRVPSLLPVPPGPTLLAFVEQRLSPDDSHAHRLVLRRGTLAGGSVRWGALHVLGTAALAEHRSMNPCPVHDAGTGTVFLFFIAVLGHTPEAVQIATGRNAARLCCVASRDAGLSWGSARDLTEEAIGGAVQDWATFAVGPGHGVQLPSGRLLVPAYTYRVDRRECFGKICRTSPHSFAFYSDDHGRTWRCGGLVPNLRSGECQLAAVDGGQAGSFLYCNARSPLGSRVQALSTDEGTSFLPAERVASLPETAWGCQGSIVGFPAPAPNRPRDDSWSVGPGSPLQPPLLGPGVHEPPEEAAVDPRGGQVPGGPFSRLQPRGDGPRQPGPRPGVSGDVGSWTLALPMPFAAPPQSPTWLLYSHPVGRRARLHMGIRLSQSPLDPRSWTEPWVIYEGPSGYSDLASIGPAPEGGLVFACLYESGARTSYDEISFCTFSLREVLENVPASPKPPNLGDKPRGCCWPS
# Sialidase-4 [2] = target: T2, Sialidase-4; test: Inhibition of human NEU4 using 4-MU-NANA as substrate measured every 30 seconds for 60 mins by fluorescence plate reader analysis
IC50 (Sialidase-3) [µM],IC50 (Sialidase-1) [µM],IC50 (Sialidase-4 [1]) [µM],Ki (Sialidase-4 [2]) [µM],SMILES
80,> 1000,–,–,CC(=O)N[C@H]1[C@H]([C@H](O)[C@H](O)Cn2cc(CO)nn2)OC(C(=O)O)=C[C@@H]1O
4.6,> 200,2.3,–,CC(=O)N[C@H]1[C@H]([C@H](O)[C@H](O)Cn2cc(-c3ccccc3)nn2)OC(C(=O)O)=C[C@@H]1O
–,> 1000,4,–,CC(=O)N[C@H]1[C@H]([C@H](O)[C@H](O)Cn2cc(C(C)(C)O)nn2)OC(C(=O)O)=C[C@@H]1O
19.7,620,60,–,CC(=O)N[C@H]1[C@H]([C@H](O)[C@H](O)CN=[N+]=[N-])OC(C(=O)O)=C[C@@H]1O
5.5,> 1000,1.7,–,CC(=O)N[C@H]1[C@H]([C@H](O)[C@H](O)Cn2cc(COc3ccccc3)nn2)OC(C(=O)O)=C[C@@H]1O
> 1000,> 1000,250,–,O=C(Cn1cc(-c2ccccc2)nn1)N[C@H]1[C@H]([C@H](O)[C@H](O)CO)OC(C(=O)O)=C[C@@H]1O
90,170,3.6,–,CCOc1cn(C[C@@H](O)[C@@H](O)[C@@H]2OC(C(=O)O)=C[C@H](O)[C@H]2NC(C)=O)nn1
4.7,29,4.5,–,[N-]=[N+]=NCC(=O)N[C@H]1[C@H]([C@H](O)[C@H](O)CO)OC(C(=O)O)=C[C@@H]1O
39,660,2.1,–,CC(=O)N[C@H]1[C@H]([C@H](O)[C@H](O)Cn2cc(CCCO)nn2)OC(C(=O)O)=C[C@@H]1O
38,> 1000,0.81,0.06,CC(=O)N[C@H]1[C@H]([C@H](O)[C@H](O)Cn2cc(CCO)nn2)OC(C(=O)O)=C[C@@H]1O
